# Laboratory results from patent US20230092389A1, “UNIT DOSES, AEROSOLS, KITS, AND METHODS FOR TREATING HEART CONDITIONS BY PULMONARY ADMINISTRATION” (InCarda Therapeutics, Inc., priority 2017, published 2023).
# Read-outs that look alike come from different tables or passages of the source.
# What was measured:
# [1] = test system: dogs with induced supraventricular tachycardia; assay: Induced supraventricular tachycardia (SVT) model, IT vs IV, anesthetized dogs (Example 2); format: in vivo, dog; settings: for cardiovascular effect when given by intratracheal instillation: summary of Example 2
# Method: Supraventricular Tachycardia Model:
# A venous catheter was placed in a peripheral vessel (i.e., cephalic) for administration of anesthetic(s). For anesthesia induction, all animals were given a combination of diazepam (˜0.5 mg/kg) and ketamine (˜10 mg/kg) intravenously through this venous catheter. Anesthesia was sustained until completion of the study with an intravenous infusion of pentobarbital (5-15 mg/kg/hr). Following induction, animals were endotracheally intubated and mechanically ventilated (˜12 breaths/min with a tidal volume of 200-300 mL).
# Subsequently, a cut-down on a jugular vein permitted the introduction of a pacing lead into the right atrium. Similarly, for arterial pressure monitoring, a solid-state micromanometer catheter (Millar Instruments) was advanced into the aortic root via a cut-down over an artery (e.g., femoral, carotid). Transthoracic electrodes forming ECG lead II was placed. For vehicle/test article delivery, a 4F catheter was introduced through the trachea and wedged into a small airway, and a venous catheter was placed in a peripheral vessel (i.e., cephalic).
# Following instrumentation/hemodynamic stabilization (for at least 15 minutes), right atrial pacing (5-10 V, 40 Hz, 2 ms pulses) was established in order to induce supraventricular tachycardia (SVT); pacing and SVT was sustained throughout the duration of the experiments. Approximately 5 minutes after onset of SVT and while monitoring ECG/arterial pressure continuously, the animals were administered three escalating doses (one at a time) of a test article; each dose was delivered as a bolus (˜3 mL) directly into a small airway through the intratracheal catheter (IT). Following dosing, the heart-rate (HR) and arterial pressure response were monitored for 15 minutes.
# Subsequently (once the response to three IT doses had been recorded), hemodynamic recovery was allowed for approximately 30 minutes, and the electrocardiographic/hemodynamic response to the highest test-article dose was re-evaluated; however, for comparison purposes, this dose was delivered intravenously (IV).
# Overall, two groups/test-articles were studied, and up to two animals were assigned to each group (n=2/group): one group received esmolol HCL (0.5-1.0 mg/kg, ESM), while the other received adenosine (0.25-1.0 mg/kg, ADN); only one test article was administered to per animal.
# [2] = test system: dogs with induced atrial fibrillation; format: in vivo, dog; settings: for conversion of induced atrial fibrillation to normal sinus rhythm: pulmonary dose 0.25 mg/kg body weight; for cardiovascular effect when given by intratracheal instillation: summary of Example 2
# Method: Atrial Fibrillation Model: A venous catheter was placed in a peripheral vessel (i.e., cephalic) for administration of anesthetic. […] Following induction, animals were endotracheally intubated and mechanically ventilated (˜12 breaths/minute with a tidal volume of 200-300 mL). Subsequently, a cut-down on a jugular vein permitted introduction of a pacing lead into the right atrium. Transthoracic electrodes forming ECG lead II were placed. For test/vehicle article delivery, a 4F catheter was introduced through the trachea and wedged into a small airway, and a venous catheter was placed in a peripheral vessel (i.e., cephalic). […] Approximately 5 min after administration of this parasympathomimetic was started; the following experiments were performed: […] Observations were made for up to 10 minutes. […] Vehicle was only water.
# physchem = settings: water
smiles,measurement,setting,value
Nc1ncnc2c1ncn2[C@@H]1O[C@H](CO)[C@@H](O)[C@H]1O [adenosine],effect on the heart,[1]; administered via the lung,did not have any effect on the heart
same,cardiovascular effect when given by intratracheal instillation,[1],clear response was not observed
COc1ccc([C@@H]2Sc3ccccc3N(CCN(C)C)C(=O)[C@@H]2OC(C)=O)cc1 [diltiazem],mean arterial blood pressure (MAP),"[2]; dog, in vivo, 0.25 mg/kg",notable drop
same,PQ interval,[2]; pulmonary dose 0.25 mg/kg,prolonged the PQ interval
same,heart rate,[2]; pulmonary dose 0.25 mg/kg,slowed down but marginally
same,conversion of induced atrial fibrillation to normal sinus rhythm,[2]; 0.25 mg/kg,converted the induced atrial fibrillation to normal sinus rhythm
same,conversion of induced atrial fibrillation to normal sinus rhythm,"[2]; listed as diltiazem HCl, 0.25 mg/kg",Afib converting after administration
same,cardiovascular effect when given by intratracheal instillation,[2],clear cardiovascular effect
same,comparison of pulmonary and IV routes,"[1]; 0.25 mg/kg (FIGS. 14, 15)",comparable in all aspects
same,PR interval,"[1]; IV or pulmonary, 0.25 mg/kg",prolonged the PR interval
same,timing of the electrophysiological change,[1]; IV vs pulmonary,comparable between IV and pulmonary
same,Mean Arterial Pressure (MAP),"[1]; dog, in vivo, iv, 0.25 mg/kg",dropped significantly in both cases
same,pH of solution in water,3.5 mg/mL solution,6.7
same,appearance of solution,"diltiazem hydrochloride 50 mg/ml, flecainide acetate 30 mg/ml in distilled water",clear with no visible particulate matter
same,solubility,physchem,> 90 mg/mL
CN(CCOc1ccc(NS(C)(=O)=O)cc1)CCc1ccc(NS(C)(=O)=O)cc1 [dofetilide],heart rate,[2]; escalating pulmonary doses of 10-40 mcg/kg body weight,minor reduction in heart rate
same,effect on induced atrial fibrillation,[2]; pulmonary (IT) administration,marginally slowed the ventricular rate
same,cardiovascular effect when given by intratracheal instillation,[2],probable effect
COC(=O)CCc1ccc(OCC(O)CNC(C)C)cc1 (stereo not shown) [esmolol],AV block,"[1]; 0.5 mg/kg via the lung (FIGS. 17, 18)",period of AV block induced
same,AV block,[1]; 0.75 mg/kg via the lung (FIG. 20),period of AV block induced
same,PR intervals in the ECG traces,"[1]; elevating doses, IT",prolonging the PR intervals
same,electrophysiological effects,[1]; higher dose 1.0 mg/kg,did not produce the same electrophysiological effects
same,AV block,"[1]; lower doses, via the lung (IT)",2nd degree AV block
same,cardiovascular effect when given by intratracheal instillation,[1],probable effect
same,drop in MAP,"[1]; via the lung, any of the doses",did not cause a drop in MAP
